{"source": "the supplement of paper PMC10307832", "assay_in_all_cases": "relative viability (nuclei count vs DMSO), 5 days (fraction); higher = more cells survive", "key": {"NCI-H1792": {"system": "NCI-H1792", "in_short": "(§1)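 Five library-drug doses in √10 steps were combined with a fixed anchor-drug dose, or a single drug was given alone, by pin tool to lung cancer cell lines in 1536-well plates the day after seeding. Nuclei were stained and counted after 5 days. Relative viability is the nuclei count in treated wells over that in vehicle wells, taken as the median of duplicate plates.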"}, "ChaGo-K-1": {"system": "ChaGo-K-1", "in_short": "as §1"}, "HCC-366": {"system": "HCC-366", "in_short": "as §1"}, "NCI-H2405": {"system": "NCI-H2405", "in_short": "as §1"}, "NCI-H460": {"system": "NCI-H460", "in_short": "as §1"}, "LCLC-97TM1": {"system": "LCLC-97TM1", "in_short": "as §1"}, "NCI-H1734": {"system": "NCI-H1734", "in_short": "as §1"}, "COR-L23": {"system": "COR-L23", "in_short": "as §1"}, "SK-LU-1": {"system": "SK-LU-1", "in_short": "as §1"}, "HCC-78": {"system": "HCC-78", "in_short": "as §1"}, "LK-2": {"system": "LK-2", "in_short": "as §1"}, "NCI-H1355": {"system": "NCI-H1355", "in_short": "as §1"}, "201T": {"system": "201T", "in_short": "as §1"}, "NCI-H2085": {"system": "NCI-H2085", "in_short": "as §1"}, "NCI-H1993": {"system": "NCI-H1993", "in_short": "as §1"}, "NCI-H838": {"system": "NCI-H838", "in_short": "as §1"}, "HARA": {"system": "HARA", "in_short": "as §1"}, "NCI-H520": {"system": "NCI-H520", "in_short": "as §1"}, "NCI-H3122": {"system": "NCI-H3122", "in_short": "as §1"}, "NCI-H1975": {"system": "NCI-H1975", "in_short": "as §1"}, "HCC-15": {"system": "HCC-15", "in_short": "as §1"}, "NCI-H1650": {"system": "NCI-H1650", "in_short": "as §1"}, "LOU-NH91": {"system": "LOU-NH91", "in_short": "as §1"}}}
{"molecule": "Oc1nc(-c2ccc(C(F)(F)F)cc2)nc2c1CSCC2", "note": "[XAV939] + O=C(c1cc(Cc2n[nH]c(=O)c3ccccc23)ccc1F)N1CCN(C(=O)C2CC2)CC1 [Olaparib] (partner 8 µM)", "values": [{"measurement": "relative viability", "setting": "NCI-H1792; first compound 0.08 µM", "result": 0.602}, {"measurement": "relative viability", "setting": "NCI-H1792; first compound 0.253 µM", "result": 0.379}, {"measurement": "relative viability", "setting": "NCI-H1792; first compound 0.8 µM", "result": 0.398}, {"measurement": "relative viability", "setting": "NCI-H1792; first compound 2.53 µM", "result": 0.268}, {"measurement": "relative viability", "setting": "ChaGo-K-1; first compound 0.08 µM", "result": 0.409}, {"measurement": "relative viability", "setting": "ChaGo-K-1; first compound 0.253 µM", "result": 0.392}, {"measurement": "relative viability", "setting": "ChaGo-K-1; first compound 0.8 µM", "result": 0.384}, {"measurement": "relative viability", "setting": "ChaGo-K-1; first compound 2.53 µM", "result": 0.376}, {"measurement": "relative viability", "setting": "HCC-366; first compound 0.08 µM", "result": 0.414}, {"measurement": "relative viability", "setting": "HCC-366; first compound 0.253 µM", "result": 0.326}, {"measurement": "relative viability", "setting": "HCC-366; first compound 0.8 µM", "result": 0.283}, {"measurement": "relative viability", "setting": "HCC-366; first compound 2.53 µM", "result": 0.175}, {"measurement": "relative viability", "setting": "NCI-H2405; first compound 0.08 µM", "result": 0.974}, {"measurement": "relative viability", "setting": "NCI-H2405; first compound 0.253 µM", "result": 0.824}, {"measurement": "relative viability", "setting": "NCI-H2405; first compound 0.8 µM", "result": 0.797}, {"measurement": "relative viability", "setting": "NCI-H2405; first compound 2.53 µM", "result": 0.766}, {"measurement": "relative viability", "setting": "NCI-H460; first compound 0.08 µM", "result": 0.58}, {"measurement": "relative viability", "setting": "NCI-H460; first compound 0.253 µM", "result": 0.35}, {"measurement": "relative viability", "setting": "NCI-H460; first compound 0.8 µM", "result": 0.395}, {"measurement": "relative viability", "setting": "NCI-H460; first compound 2.53 µM", "result": 0.271}, {"measurement": "relative viability", "setting": "LCLC-97TM1; first compound 0.08 µM", "result": 0.326}, {"measurement": "relative viability", "setting": "LCLC-97TM1; first compound 0.253 µM", "result": 0.425}, {"measurement": "relative viability", "setting": "LCLC-97TM1; first compound 2.53 µM", "result": 0.279}, {"measurement": "relative viability", "setting": "NCI-H1734; first compound 0.08 µM", "result": 0.655}, {"measurement": "relative viability", "setting": "NCI-H1734; first compound 0.253 µM", "result": 0.538}, {"measurement": "relative viability", "setting": "NCI-H1734; first compound 0.8 µM", "result": 0.673}, {"measurement": "relative viability", "setting": "NCI-H1734; first compound 2.53 µM", "result": 0.602}, {"measurement": "relative viability", "setting": "COR-L23; first compound 0.08 µM", "result": 0.321}, {"measurement": "relative viability", "setting": "COR-L23; first compound 0.253 µM", "result": 0.386}, {"measurement": "relative viability", "setting": "COR-L23; first compound 0.8 µM", "result": 0.315}, {"measurement": "relative viability", "setting": "COR-L23; first compound 2.53 µM", "result": 0.29}, {"measurement": "relative viability", "setting": "SK-LU-1; first compound 0.08 µM", "result": 0.5}, {"measurement": "relative viability", "setting": "SK-LU-1; first compound 0.253 µM", "result": 0.481}, {"measurement": "relative viability", "setting": "SK-LU-1; first compound 0.8 µM", "result": 0.437}, {"measurement": "relative viability", "setting": "SK-LU-1; first compound 2.53 µM", "result": 0.596}, {"measurement": "relative viability", "setting": "HCC-78; first compound 0.08 µM", "result": 0.843}, {"measurement": "relative viability", "setting": "HCC-78; first compound 0.253 µM", "result": 0.821}, {"measurement": "relative viability", "setting": "HCC-78; first compound 0.8 µM", "result": 0.713}, {"measurement": "relative viability", "setting": "HCC-78; first compound 2.53 µM", "result": 0.592}, {"measurement": "relative viability", "setting": "LK-2; first compound 0.08 µM", "result": 0.607}, {"measurement": "relative viability", "setting": "LK-2; first compound 0.253 µM", "result": 0.669}, {"measurement": "relative viability", "setting": "LK-2; first compound 0.8 µM", "result": 0.84}, {"measurement": "relative viability", "setting": "LK-2; first compound 2.53 µM", "result": 0.657}, {"measurement": "relative viability", "setting": "NCI-H1355; first compound 0.08 µM", "result": 0.729}, {"measurement": "relative viability", "setting": "NCI-H1355; first compound 0.253 µM", "result": 0.617}, {"measurement": "relative viability", "setting": "NCI-H1355; first compound 0.8 µM", "result": 0.692}, {"measurement": "relative viability", "setting": "NCI-H1355; first compound 2.53 µM", "result": 0.487}, {"measurement": "relative viability", "setting": "201T; first compound 0.08 µM", "result": 0.855}, {"measurement": "relative viability", "setting": "201T; first compound 0.253 µM", "result": 0.814}, {"measurement": "relative viability", "setting": "201T; first compound 0.8 µM", "result": 0.687}, {"measurement": "relative viability", "setting": "201T; first compound 2.53 µM", "result": 0.745}, {"measurement": "relative viability", "setting": "NCI-H2085; first compound 0.08 µM", "result": 0.782}, {"measurement": "relative viability", "setting": "NCI-H2085; first compound 0.253 µM", "result": 0.719}, {"measurement": "relative viability", "setting": "NCI-H2085; first compound 0.8 µM", "result": 0.742}, {"measurement": "relative viability", "setting": "NCI-H2085; first compound 2.53 µM", "result": 0.761}, {"measurement": "relative viability", "setting": "NCI-H1993; first compound 0.08 µM", "result": 1.01}, {"measurement": "relative viability", "setting": "NCI-H1993; first compound 0.253 µM", "result": 0.87}, {"measurement": "relative viability", "setting": "NCI-H1993; first compound 0.8 µM", "result": 1.1}, {"measurement": "relative viability", "setting": "NCI-H1993; first compound 2.53 µM", "result": 1.16}, {"measurement": "relative viability", "setting": "NCI-H838; first compound 0.08 µM", "result": 0.755}, {"measurement": "relative viability", "setting": "NCI-H838; first compound 0.253 µM", "result": 0.662}, {"measurement": "relative viability", "setting": "NCI-H838; first compound 0.8 µM", "result": 0.597}, {"measurement": "relative viability", "setting": "NCI-H838; first compound 2.53 µM", "result": 0.398}, {"measurement": "relative viability", "setting": "HARA; first compound 0.08 µM", "result": 0.832}, {"measurement": "relative viability", "setting": "HARA; first compound 0.253 µM", "result": 0.862}, {"measurement": "relative viability", "setting": "HARA; first compound 0.8 µM", "result": 0.759}, {"measurement": "relative viability", "setting": "HARA; first compound 2.53 µM", "result": 0.661}, {"measurement": "relative viability", "setting": "NCI-H520; first compound 0.08 µM", "result": 0.375}, {"measurement": "relative viability", "setting": "NCI-H520; first compound 0.8 µM", "result": 0.342}, {"measurement": "relative viability", "setting": "NCI-H520; first compound 2.53 µM", "result": 0.356}, {"measurement": "relative viability", "setting": "NCI-H3122; first compound 0.08 µM", "result": 0.706}, {"measurement": "relative viability", "setting": "NCI-H3122; first compound 0.253 µM", "result": 0.574}, {"measurement": "relative viability", "setting": "NCI-H3122; first compound 0.8 µM", "result": 0.538}, {"measurement": "relative viability", "setting": "NCI-H3122; first compound 2.53 µM", "result": 0.468}, {"measurement": "relative viability", "setting": "NCI-H1975; first compound 0.08 µM", "result": 0.712}, {"measurement": "relative viability", "setting": "NCI-H1975; first compound 0.253 µM", "result": 0.601}, {"measurement": "relative viability", "setting": "NCI-H1975; first compound 0.8 µM", "result": 0.622}, {"measurement": "relative viability", "setting": "NCI-H1975; first compound 2.53 µM", "result": 0.505}, {"measurement": "relative viability", "setting": "HCC-15; first compound 0.08 µM", "result": 0.693}, {"measurement": "relative viability", "setting": "HCC-15; first compound 0.253 µM", "result": 0.717}, {"measurement": "relative viability", "setting": "HCC-15; first compound 0.8 µM", "result": 0.67}, {"measurement": "relative viability", "setting": "HCC-15; first compound 2.53 µM", "result": 0.676}, {"measurement": "relative viability", "setting": "NCI-H1650; first compound 0.08 µM", "result": 0.762}, {"measurement": "relative viability", "setting": "NCI-H1650; first compound 0.253 µM", "result": 0.633}, {"measurement": "relative viability", "setting": "NCI-H1650; first compound 0.8 µM", "result": 0.749}, {"measurement": "relative viability", "setting": "NCI-H1650; first compound 2.53 µM", "result": 0.61}, {"measurement": "relative viability", "setting": "LOU-NH91; first compound 0.08 µM", "result": 0.923}, {"measurement": "relative viability", "setting": "LOU-NH91; first compound 0.253 µM", "result": 0.834}, {"measurement": "relative viability", "setting": "LOU-NH91; first compound 0.8 µM", "result": 0.908}, {"measurement": "relative viability", "setting": "LOU-NH91; first compound 2.53 µM", "result": 0.887}]}
